Experimental data from patent US6262036A, “Method for inhibiting RNA translation using chimeric oligonucleoside compounds” (priority 2000, dated 2001).
[mp] = methylphosphonate linkage

Tests used:
[1] = tested on: complementary synthetic RNA target; assay: Hybridization of chirally enriched and non-chiral oligomers to RNA targets (Example 32); type: binding; conditions: 1:1 with RNA, midpoint of sigmoidal transition at 260 nm
Description: Chirally enriched all-pyrimidine (C*T)7 A and all-purine (A*G)7 T MP-oligomers were prepared using either Rp - or Sp -dimeric units. Control oligomers were also prepared using the individual monomeric units. The asterisks indicate the positions of defined chirality.
Each oligomer was annealed to a complementary synthetic RNA target and then monitored by absorbance at 260 nm as a function of temperature. Sigmoidal transitions were observed corresponding to thermal denaturation of the hybridization complexes. The Tm values were determined at the midpoint of each sigmoidal transition. […] Thus, we anticipated that the data for each chirally enriched series would be applicable to double-stranded and triple-stranded MP/RNA helices, respectively.

[2] = tested on: complementary RNA targets; assay: Tm of Rp-enriched versus racemic methylphosphonate oligomers with RNA (Example 33); type: binding; conditions: 2.4 μM total strand concentration, pH 7.2, 100 mM sodium chloride
[3] = tested on: complementary synthetic RNA targets; assay: Binding stability of backbone modified (CT)7A oligomers to RNA (Example 34)

For “2288-1: 5'-CT-CT-CT-CT-CT-CT-CT-A-3', racemic all-MP (CTCTCTCTCTCTCTA; all [mp], sugars by position and methylation of C not given here) [Oligomer 2288-1]”, the “Tm (1:1, RNA)” value [1] was 35.1 °C, the Tm [2] was 34.4 °C and the TM ([3]; 2.4 μM total strand concentration, pH 7.2, 100 mM sodium chloride) was 34.0 °C. The “K (37° C.) (binding constant KA)” value ([3]; 37° C., two-state model fit of thermal dissociation data) was 8.3 × 10^5.
